Reference: ChEMBL document CHEMBL1201862, “PubChem BioAssay data set” (2004)
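Each compound was tested at five concentrations against cells in 96-well plates for 48 hours. The concentration for 50% growth inhibition is given as GI50.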 Calls of active or inactive are those of the source. Rule as the data show it: active = GI50 up to about 1.1 µM and inactive = higher.

What was measured:
Assay in all cases: inhibition of tumour cell growth, NCI panel, 48 h
[1] = test system: 786-0
[2] = test system: A498
[3] = test system: A549
[4] = test system: ACHN
[5] = test system: CAKI-1
[6] = test system: CCRF-CEM
[7] = test system: COLO 205
[8] = test system: DLD-1
[9] = test system: DMS-114
[10] = test system: DMS-273
[11] = test system: EKVX
[12] = test system: HCC 2998
[13] = test system: HCT-116
[14] = test system: HCT-15
[15] = test system: HL-60
[16] = test system: HOP-18
[17] = test system: HOP-62
[18] = test system: HOP-92
[19] = test system: HT-29
[20] = test system: IGROV-1
[21] = test system: K562
[22] = test system: KM-20L2
[23] = test system: KM12
[24] = test system: LOX IMVI
[25] = test system: LXFL 529
[26] = test system: M14
[27] = test system: M19-MEL
[28] = test system: MOLT-4
[29] = test system: NCI-H226
[30] = test system: NCI-H23
[31] = test system: NCI-H460
[32] = test system: NCI-H522
[33] = test system: OVCAR-3
[34] = test system: OVCAR-4
[35] = test system: OVCAR-8
[36] = test system: RPMI-8226
[37] = test system: RXF 393
[38] = test system: SF-268
[39] = test system: SF-295
[40] = test system: SF-539
[41] = test system: SK-MEL-28
[42] = test system: SK-MEL-2
[43] = test system: SK-MEL-5
[44] = test system: SK-OV-3
[45] = test system: SN12C
[46] = test system: SNB-19
[47] = test system: SNB-75
[48] = test system: SR
[49] = test system: SW-620
[50] = test system: TK-10
[51] = test system: U-251
[52] = test system: UACC-257
[53] = test system: UACC-62
[54] = test system: UO-31
[55] = test system: XF498
[56] = test system: Malme-3M
[57] = test system: OVCAR-5
[58] = test system: SNB-78

With CC1=C2C(=O)C3[C@@H](CCC4=CC(=O)CC[C@@]43C)C2CC[C@]12O[C@@H]1C[C@H](C)CN[C@H]1[C@H]2C (some centres undefined) the GI50 [1] was 43.4 µM (inactive), the GI50 [2] was 32.3 µM (inactive) and the GI50 [3] was 28 µM (inactive). The GI50 [4] was 31.4 µM (inactive), the GI50 [5] was > 100 µM (inactive) and the GI50 [6] was 15.9 µM (inactive). For the same compound, the GI50 [7] was 73.6 µM (inactive), the GI50 [8] was > 100 µM (inactive) and the GI50 [9] was 15.3 µM (inactive). The GI50 [10] was 17.7 µM (inactive), the GI50 [11] was 49 µM (inactive) and the GI50 [12] was > 100 µM (inactive). The GI50 [13] was 30.6 µM (inactive), the GI50 [14] was 48.8 µM and the GI50 [15] was 12.3 µM (inactive). The GI50 [16] was 49.3 µM (inactive), the GI50 [17] was 16.9 µM (inactive) and the GI50 [18] was 48.2 µM (inactive). For the same compound, the GI50 [19] was 39.8 µM (inactive), the GI50 [20] was > 100 µM (inactive) and the GI50 [21] was 17.4 µM (inactive). The GI50 [22] was 68.4 µM (inactive), the GI50 [23] was 30.1 µM (inactive) and the GI50 [24] was 29.6 µM (inactive). For the same compound, the GI50 [25] was 34.5 µM (inactive), the GI50 [26] was 59 µM (inactive) and the GI50 [27] was 36.2 µM (inactive). The GI50 [28] was 19.9 µM (inactive), the GI50 [29] was 70.5 µM (inactive) and the GI50 [30] was 37.6 µM (inactive). The GI50 [31] was 33.5 µM (inactive), the GI50 [32] was 21 µM (inactive) and the GI50 [33] was 45.8 µM (inactive). The GI50 [34] was > 100 µM (inactive), the GI50 [35] was 40.7 µM (inactive) and the GI50 [36] was 20.7 µM (inactive). The GI50 [37] was 38.5 µM (inactive), the GI50 [38] was 31.6 µM (inactive) and the GI50 [39] was 32.8 µM (inactive). The GI50 [40] was 45.4 µM (inactive), the GI50 [41] was 97.1 µM (inactive) and the GI50 [42] was 21.1 µM (inactive). The GI50 [43] was 42.1 µM (inactive), the GI50 [44] was > 100 µM (inactive) and the GI50 [45] was 36.3 µM (inactive). The GI50 [46] was 44.4 µM (inactive), the GI50 [47] was 72.8 µM (inactive) and the GI50 [48] was 17.1 µM (inactive). The GI50 [49] was 57.9 µM (inactive), the GI50 [50] was 29.2 µM (inactive) and the GI50 [51] was 21.4 µM (inactive). The GI50 [52] was 36 µM (inactive), the GI50 [53] was 23.4 µM (inactive) and the GI50 [54] was 63.7 µM (inactive). The GI50 [55] was 12.6 µM (inactive).
With [O-][S+](Cc1cnc2ccccc2c1)c1nc2ccccc2nc1-c1cccs1 (centres undefined) the GI50 [1] was 13.2 µM (inactive), the GI50 [3] was 19.7 µM (inactive) and the GI50 [4] was 13.6 µM (inactive). The GI50 [6] was 5.08 µM (inactive), the GI50 [7] was 19.5 µM (inactive) and the GI50 [9] was 10.5 µM (inactive). For the same compound, the GI50 [10] was 13.7 µM (inactive), the GI50 [11] was 6.31 µM (inactive) and the GI50 [13] was 10.6 µM (inactive). The GI50 [15] was 4.31 µM (inactive), the GI50 [16] was 17.5 µM (inactive) and the GI50 [18] was 11.2 µM (inactive). For the same compound, the GI50 [19] was 16.6 µM (inactive), the GI50 [20] was 16.8 µM (inactive) and the GI50 [21] was 7.46 µM (inactive). The GI50 [25] was 8.55 µM (inactive), the GI50 [26] was 15.1 µM (inactive) and the GI50 [28] was 4.94 µM (inactive). For the same compound, the GI50 [56] was 19.2 µM (inactive), the GI50 [29] was 0.43 µM (active) and the GI50 [30] was 14.9 µM (inactive). For the same compound, the GI50 [33] was 19.7 µM (inactive), the GI50 [34] was 10.5 µM (inactive) and the GI50 [57] was 13.5 µM (inactive). The GI50 [35] was 17.5 µM (inactive), the GI50 [36] was 25.4 µM (inactive) and the GI50 [38] was 16.1 µM (inactive). The GI50 [39] was 25.5 µM (inactive), the GI50 [40] was 17.9 µM (inactive) and the GI50 [41] was 16.9 µM (inactive). The GI50 [44] was 29.2 µM (inactive), the GI50 [45] was 14.5 µM (inactive) and the GI50 [46] was 22.4 µM (inactive). For the same compound, the GI50 [47] was 19.1 µM (inactive), the GI50 [58] was 20.3 µM (inactive) and the GI50 [51] was 18.7 µM (inactive). For the same compound, the GI50 [52] was 16 µM (inactive), the GI50 [54] was 14.8 µM (inactive) and the GI50 [55] was 4.06 µM (inactive).
